The text below walks through data of ChEMBL document CHEMBL1143411, “Concentration-effect relationship of ceftazidime explains why the time above the MIC is 40 percent for a static effect in vivo” (Antimicrob Agents Chemother, 2007).

The test system of data set [1] is Homo sapiens. In words: %fT>MIC in human at 59.8 mg/kg administered every 8 hrs. In kind it is ADME, organism-based. Also noted: dose 59.8 mg/kg. As to conditions: in vivo.
The test system of data set [2] is Mus musculus. The data set can be described thus: %fT>MIC in mouse at 4.60 mg/kg administered every 3 hrs. The following applies: in vivo, 4.6 mg/kg. The format is ADME, organism-based. The arrangement: dose 4.6 mg/kg.
For data set [3], the system named is Pseudomonas aeruginosa. The data set can be described thus: Antibacterial activity against Pseudomonas aeruginosa ATCC 27853 assessed as maximum bacterial kill rate by time-kill study. The format is functional.
Data set [4] relates to Mus musculus. In words: %fT>MIC in mouse at 35.6 mg/kg administered every 6 hrs. In kind it is ADME, organism-based. The arrangement: dose 35.6 mg/kg. The following applies: in vivo.
Data set [5] is described as follows: Elimination rate constant in mouse. In kind it is ADME, organism-based. The following applies: in vivo.
The nature of data set [6]: Volume of distribution in human. In kind it is ADME, organism-based. The following applies: in vivo, read-out: Vc.
Data set [7] is described as follows: Elimination rate constant in human. In kind it is ADME, organism-based. The following applies: in vivo.
The test system of data set [8] is Pseudomonas aeruginosa. The data set can be described thus: Antibacterial activity against Pseudomonas aeruginosa ATCC 27853 by microdilution method. In kind it is functional, organism-based. (In general: Broth dilution looks for growth in wells or tubes with falling amounts of substance.)
Data set [9] deals with Homo sapiens. The data set can be described thus: %fT>MIC in human at 121 mg/kg administered every 12 hrs. The format is ADME, organism-based. Also noted: dose 121 mg/kg. The following applies: in vivo.
The nature of data set [10]: Volume of distribution in mouse. The following applies: in vivo, read-out: Vc. The format is ADME, organism-based.
Data set [11] concerns Mus musculus. In words: %fT>MIC in mouse at 9.29 mg/kg administered every 4 hrs. The format is ADME, organism-based. Also noted: dose 9.29 mg/kg. As to conditions: in vivo.
Data set [12] has as its system Homo sapiens. The data set can be described thus: %fT>MIC in human at 20.2 mg/kg administered every 4 hrs. Also noted: dose 20.2 mg/kg. The following applies: in vivo. In kind it is ADME, organism-based.
For data set [13], the system named is Mus musculus. The data set can be described thus: %fT>MIC in mouse at 129.7 mg/kg administered every 8 hrs. The arrangement: dose 129.7 mg/kg. As to conditions: in vivo. In kind it is ADME, organism-based.
The test system of data set [14] is Mus musculus. In words: %fT>MIC in mouse at 2.12 mg/kg administered every 2 hrs. Also noted: dose 2.12 mg/kg. The format is ADME, organism-based. As to conditions: in vivo.
In data set [15] the test system is Pseudomonas aeruginosa. In words: Antibacterial activity against Pseudomonas aeruginosa ATCC 27853 assessed as bacterial growth rate by time-kill study. The format is functional.
Data set [16] deals with Homo sapiens. The data set can be described thus: %fT>MIC in human at 38.9 mg/kg administered every 6 hrs. In kind it is ADME, organism-based. The arrangement: dose 38.9 mg/kg. As to conditions: in vivo.

The term EC50 denotes the concentration needed to bring the measured effect to its halfway point. A higher EC50 goes with a less potent agent.

Values after ≈ are worked out from the molar mass of the structure shown.

Consider `CC(C)(O/N=C(\C(=O)N[C@@H]1C(=O)N2C(C(=O)[O-])=C(C[n+]3ccccc3)CS[C@H]12)c1csc(N)n1)C(=O)O` [CEFTAZIDIME], for which the “fT>MIC” value turned out to be 37.9% in data set [1]; 38.1% in data set [2]; 36.5% in data set [4]; 37.7% in data set [9]; 37.6% in [11]; 23.7% in data set [12]. Moreover, the figures for the “fT>MIC” value in data set [13], in [14] and in [16] were 35.7%, 37.3% and 36.3%, respectively. Further, the Activity is 4.15 h⁻¹ in data set [3] and -1.41 h⁻¹ in data set [15]. The k el was 0.000544 s⁻¹ in data set [5] and 0.000128 s⁻¹ in data set [7]. The figures for the Vd in data set [6] and in [10] were 1.4 L and 0.5 L/kg, respectively. In data set [8], this compound registered an EC50 of 1.22 µg/mL (≈ 2.23 µM).
